From patent EP0831877B1, “METABOLIC EFFECTS OF CERTAIN GLUTATHIONE ANALOGS” (TELIK, INC., priority 1995, dated 1996)

How the values were obtained:
[1] = in vitro half-life in human blood; assay type: in vitro ADME
[2] = in vitro half-life / metabolism in mouse blood; assay type: in vitro ADME
[3] = test system: HT-29 (human colon adenocarcinoma) cells; test: modified clonogenic assay, potentiation of chlorambucil cytotoxicity; assay type: cell-based
Description: HT-29 (human colon adenocarcinoma) cells were obtained from Dr. Roberto Ceriani (Cancer Research Fund of Contra Costa County, Walnut Creek, CA) and were used in log phase of growth unless otherwise specified. Chlorambucil (CMB) was obtained from Sigma (St. Louis, MO) and was dissolved in 100% ethanol. All GST inhibitors were dissolved in ethanol, DMSO, or water just prior to use. The same amount of solvent added to culture medium served as the vehicle control.
In a modified clonogenic assay for cytotoxicity, cells were suspended at 2 x 10^5 cells/ml in serum-free medium in the presence of vehicle or inhibitor. […] Cells were incubated for 2 hours, then varying doses of CMB were added. At the end of a second 2-hour incubation, cells were diluted to 7.5-10 x 10^3/ml in serum-containing medium and plated in quadruplicate at 200 µl/well in Microtest III microtiter plates.
Plates were incubated for 6 days and assayed by a modified methylene blue method. Briefly, cells were fixed with 1.25% glutaraldehyde in PBS then stained with 0.05% methylene blue in distilled water. Plates were washed several times in distilled water to remove unretained dye and retained dye was resolubilized in 0.03 N HCl. Plates were read at 650 nm in a Molecular Devices Vmax plate reader (Molecular Devices, Redwood City, CA). […] A dose modification factor (DMF), a measure of potentiation of cytotoxicity, was calculated for each inhibitor by dividing the IC50 value of CMB without inhibitor treatment by the IC50 value for CMB with inhibitor treatment.

half-life, comparison of the three compounds [1]: approximately the same
half-life compared with TER199 [2]: longer half-lives than TER199
Structure (SMILES): CCNC(=O)C(N)CCC(=O)NC(CSCc1ccccc1)C(=O)N[C@@H](C(=O)OCC)c1ccccc1 (stereo partly drawn) [TER300, γE ethyl amide-C(Bz)-R-(-)-ϕG ethyl ester]
rate of metabolism [2]: intermediate between that of TER199 and TER278
amount required to achieve equivalent potentiation of chlorambucil, relative to TER199 [3]: Four times as much
DMF for chlorambucil toxicity ([3]; HT-29, 50 µM, mean ±SD of three experiments): 1.45 ± 0.16
rate of metabolism (HT-29 cell culture): intermediate between that of TER199 and TER278
